Where two headings read alike, the source gives them in different places. Numbered stars: 1 amine (or outer) side, 2 acyl side, 3 side chain; on linkers, the order of the positions; unused ones are H or OH. Square brackets hold non-standard residues; d marks the D form. Side chains are listed from the residue outwards. * marks the point of attachment. C20 diacid = O=C(O)CCCCCCCCCCCCCCCCCCC(=O)*; C18 diacid = O=C(O)CCCCCCCCCCCCCCCCC(=O)*; γGlu = O=C(O)[C@H](CCC(=O)[*:2])N[*:1]; AEEA = NCCOCCOCC(=O)O; Aib = CC(C)(N)C(=O)O
Legend:
Type in all cases: cell-based
[1] = target: T1, human GLP-1 receptor (hGLP-1R) (Homo sapiens, UniProt P43220); test: GLP-1 receptor assay, method A (CRE-luciferase reporter, BHK cells)
T1 construct: expressed in transfected cells
T1 sequence (P43220 24-463): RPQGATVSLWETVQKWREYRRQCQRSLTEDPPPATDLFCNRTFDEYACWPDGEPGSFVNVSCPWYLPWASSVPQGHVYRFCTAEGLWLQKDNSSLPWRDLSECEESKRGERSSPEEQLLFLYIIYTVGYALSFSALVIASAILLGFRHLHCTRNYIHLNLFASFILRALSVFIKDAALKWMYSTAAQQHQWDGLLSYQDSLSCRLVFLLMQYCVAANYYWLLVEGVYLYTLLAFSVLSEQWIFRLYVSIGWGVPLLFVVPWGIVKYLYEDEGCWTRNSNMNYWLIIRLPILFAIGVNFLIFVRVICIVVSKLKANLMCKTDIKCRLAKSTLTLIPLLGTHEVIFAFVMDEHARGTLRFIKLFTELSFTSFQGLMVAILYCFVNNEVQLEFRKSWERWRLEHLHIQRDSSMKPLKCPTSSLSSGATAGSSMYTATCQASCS
Description: (§1) To assess how the activation of the receptors is potentially influenced by the presence of human serum albumin (HSA), the in vitro assays were performed in the absence of HSA and presence of 1% (w/v) HSA.
Cells at approximately 80-90% confluence were washed once in PBS (Gibco 14190-094) and loosened from the cell flasks with Versene (Gibco, 15040-033). […] Cells were aliquoted and stored at −180° C. until use.
(§2) The assay buffer consisted of DMEM without phenol red (Gibco, 11880-028) supplemented with 1× GlutaMAX (Gibco, 35050-038), 10 mM HEPES (Gibco, 15630-056), 1% (w/v) ovalbumin (Sigma, A5503) and 0.1% (v/v) Pluronic F-68 (Gibco, 24040-032) either with HSA or without HSA (Sigma, A9511).
Frozen stocks of hGLP-1R BHK CRE-Luc cells were thawed in a 37° C. water bath, washed once in PBS (Gibco 14190-094) and diluted to 1.5×10^6 (1.5E+6) cells/mL in assay buffer with or without 2% (w/v) HSA (Sigma, A9511). […] The assay plates were incubated for 3 hours at 37° C. in 5% CO2, left at room temperature for 5 minutes after which 100 μL steadylite Plus™ (PerkinElmer/Revvity, 6066759) was added to each well. Plates were sealed and incubated at room temperature with gentle shaking for 30 minutes while protected from light. Luminescence was detected on a luminescence plate reader e.g., a Synergy 2 (BioTek).

[2] = target: T2, human GIP receptor (hGIPR) (Homo sapiens, UniProt P48546); test: GIP receptor assay, method A (CRE-luciferase reporter, BHK cells)
T2 construct: expressed in transfected cells
T2 sequence (P48546 22-466): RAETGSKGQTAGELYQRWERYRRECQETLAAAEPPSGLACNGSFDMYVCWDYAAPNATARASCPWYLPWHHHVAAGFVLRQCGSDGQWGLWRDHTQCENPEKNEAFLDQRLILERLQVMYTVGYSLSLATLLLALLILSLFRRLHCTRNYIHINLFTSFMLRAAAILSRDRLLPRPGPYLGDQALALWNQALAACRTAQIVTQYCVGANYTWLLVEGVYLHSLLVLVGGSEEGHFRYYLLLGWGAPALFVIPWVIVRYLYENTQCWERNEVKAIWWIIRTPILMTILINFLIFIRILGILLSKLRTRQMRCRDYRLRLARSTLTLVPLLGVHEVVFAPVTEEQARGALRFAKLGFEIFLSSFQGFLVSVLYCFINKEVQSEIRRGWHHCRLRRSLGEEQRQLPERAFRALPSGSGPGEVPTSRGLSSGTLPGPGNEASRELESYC
Description: To assess how the activation of the receptors is potentially influenced by the presence of human serum albumin (HSA), the in vitro assays were performed in the absence of HSA and presence of 1% (w/v) HSA. Unless stated otherwise the reference to the “GIP receptor assay as described in Example 4” throughout the specification shall refer to the described herein assay procedure method A (hGIPR assay) in the absence of HSA.
Activation of the human GIP receptor leads to increased intra-cellular concentrations of cyclic AMP (cAMP) and the consequent transcription activation from promoters containing multiple copies of the cAMP response element (CRE). It is thus possible to measure GIP receptor activity using a CRE-luciferase reporter gene introduced into Baby Hamster Kidney (BHK) cells co-expressing the human GIP receptor.
Cells at about 80-90% confluency were washed once with PBS (Gibco 14190-094) and detached from the cell flasks with Versene (Gibco, 15040-066). After centrifugation, the cells were counted, resuspended and diluted to approximately 1.5-3.0×10^6 (1.5E+6 to 3.0E+6) cells/mL in Recovery Cell Culture Freezing Medium (Gibco, 12648-010) and stored at −180° C. in suitable aliquots until use.
as §2
On the day before the assay hGIPR BHK Cre-Luc cells were thawed and plated out in 96 well Culture Plates (PerkinElmer/Revvity, 6005680) at 5.0×10^3 (5.0E+3) cells/well in growth medium as described above. The plates were then incubated for 21-23 hours at 37° C. with 5% CO2. On the day of the assay GLP-1-/GIP-/amylin-receptor tri-agonists or reference compounds were diluted in assay buffer using a 7-point, 10-fold titration plus a blank (absence of compound). Each compound was diluted and tested in duplicates in each experiment. In the plates containing the cells the growth medium was removed, and cells were washed twice with 100 μL PBS (Gibco 14190-094). 50 μL of the test compound dilutions were added to the plates containing cells preceded by 50 μL assay buffer with or without 2% (w/v) HSA (Sigma, A9511). The cell plates were incubated for 3 hours in a 5% CO2 incubator at 37° C. The plates were then transferred to room temperature followed by addition of 100 μL steadylite Plus™ (PerkinElmer/Revvity, 6066759). The plates were sealed and shaken for 30 minutes at room temperature while protected from light. Finally, luminescence (as an indicator of receptor activation) was measured on a Mithras reader (Berthold Technologies, DE). The EC50-values [pM] were calculated by non-linear curve fitting applying a four-parameter logistic model (Hill slope=“shared value for all datasets”) using GraphPad Prism (GraphPad Software, Boston, MA, USA).

[3] = target: T3, human amylin receptor (hAMYR3) (Homo sapiens, UniProt O60896+P30988); test: Amylin receptor assay, method A (CRE-luciferase reporter, BHK cells)
T3 construct: host or cells: BHK cells (Hollex-1 line expressing hCTR(a) and CRE-Luc), further transfected with human RAMP3
T3 sequence (P30988 25-474): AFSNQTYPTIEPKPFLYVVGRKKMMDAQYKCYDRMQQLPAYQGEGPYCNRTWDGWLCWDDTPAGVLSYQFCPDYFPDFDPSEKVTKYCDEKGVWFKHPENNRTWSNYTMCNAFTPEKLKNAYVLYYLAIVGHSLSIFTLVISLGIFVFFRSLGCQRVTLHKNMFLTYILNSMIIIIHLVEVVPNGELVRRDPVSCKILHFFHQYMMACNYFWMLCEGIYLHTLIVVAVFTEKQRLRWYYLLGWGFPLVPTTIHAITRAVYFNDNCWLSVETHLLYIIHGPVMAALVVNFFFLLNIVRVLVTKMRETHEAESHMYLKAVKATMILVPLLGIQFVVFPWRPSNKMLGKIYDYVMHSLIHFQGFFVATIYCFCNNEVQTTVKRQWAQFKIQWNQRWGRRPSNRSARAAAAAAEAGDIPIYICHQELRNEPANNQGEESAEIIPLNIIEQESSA
T3 sequence (O60896 24-148): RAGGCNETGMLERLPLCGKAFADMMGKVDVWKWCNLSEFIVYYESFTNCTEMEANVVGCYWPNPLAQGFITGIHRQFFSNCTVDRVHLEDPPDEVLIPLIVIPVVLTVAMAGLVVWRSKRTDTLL
Description: as §1
It is thus possible to measure hAMYR3 activity using a CRE-luciferase reporter gene introduced into Baby Hamster Kidney (BHK) cells co-expressing the hAMYR3.
The cell line was further transfected with human receptor modifying protein 3 (RAMP3) using standard methods.
After centrifugation, the cell pellet was resuspended and diluted to approximately 2.5-4.0×10^6 (2.5E+6 to 4.0E+6) cells/mL in Recovery™ Cell Culture Freezing Medium (Gibco, 12648-010). Cells were aliquoted and stored at −180° C. until use.
as §2, with “15630-056) and” for “15630-056),”, “either with or without” for “and”, “24040-032) and” for “24040-032)”, “with” for “with HSA”
The plate was incubated over night at 37° C. in 5% CO2. […] Luminescence was detected on a luminescence plate reader e.g., a Synergy 2 (BioTek).

[4] = method A, absence of HSA, read-out: hGLP-1R Potency, no HSA, EC50
[5] = method A, absence of HSA, read-out: hGIPR Potency, no HSA, EC50
[6] = method A, absence of HSA, read-out: hAMYR3 Potency, no HSA, EC50
[7] = hGLP-1R Potency, 1% HSA, EC50, method A, in the presence of 1% HSA
[8] = hGIPR Potency, 1% HSA, EC50, method A, in the presence of 1% HSA
[9] = hAMYR3 Potency, 1% HSA, EC50, method A, in the presence of 1% HSA

Substance: Y[Aib]EGTFTSDYSILLEEQAAREFIEWLLAGGPSK([AEEA-AEEA-γGlu-C18 diacid])GALAQTLGTNEASELSTAALGRLSAELHELATLPRTETGSGSP-NH2 [Compound 23]
- EC50 [1, 4]: 0.0153 nM
- EC50 [2, 5]: 1.2 pM
- EC50 [3, 6]: 5.17 pM

Substance: Y[Aib]EGTFTSDYSILLEEQAAREFIEWLLAGGPSK([AEEA-AEEA-γGlu-C18 diacid])GEASELSTAQLGRLSAELHRLATLPRTETGSGSP-NH2 [Compound 27]
- EC50 [1, 4]: 0.0262 nM
- EC50 [2, 5]: 2.11 pM
- EC50 [3, 6]: 3.82 pM

Substance: Y[Aib]EGTFTSDYSILLEEQAAREFIEWLLAGGPSK([AEEA-AEEA-γGlu-C18 diacid])GALAQTLFVNQASELSTAALGRLSAELHELATLPRTETGSGSP-NH2 [Compound 24]
- EC50 [1, 4]: 0.0515 nM
- EC50 [2, 5]: 2.34 pM
- EC50 [3, 6]: 4.24 pM

Substance: Y[Aib]EGTFTSDYSILLEEQAAREFIEWLLAGGPSK([AEEA-AEEA-γGlu-C18 diacid])GEASELSTAALGRLSAELHYLATLPRTETGSGSP-NH2 [Compound 29]
- EC50 [1, 4]: 0.0271 nM
- EC50 [2, 5]: 2.62 pM
- EC50 [3, 6]: 3.09 pM

Substance: Y[Aib]EGTFTSDYSILLEEQAAREFIEWLLAGGPSGGGGEASHLSTAQTQRLSAELHK([AEEA-AEEA-γGlu-C20 diacid])LATLPRTETGSGSP-NH2 [Compound 96]
- EC50 [1, 7]: 0.162 nM
- EC50 [1, 4]: 0.0168 nM
- EC50 [2, 8]: 30 pM
- EC50 [2, 5]: 3.62 pM
- EC50 [3, 9]: 595 pM
- EC50 [3, 6]: 3.73 pM

Substance: Y[Aib]EGTFTSDYSILLEEQAAREFIEWLLAGGPSRGEASELSTAALGRLSAELHK([AEEA-AEEA-γGlu-C18 diacid])LATLPRTETGSGSP-NH2 [Compound 67]
- EC50 [1, 7]: 0.105 nM
- EC50 [1, 4]: 0.0154 nM
- EC50 [2, 8]: 37 pM
- EC50 [2, 5]: 4.28 pM
- EC50 [3, 9]: 190 pM
- EC50 [3, 6]: 3.66 pM

Substance: Y[Aib]EGTFTSDYSILLEEQAAREFIEWLLAGGPSSGEASHLSTAQTQRLSAELHRLATLPK([AEEA-AEEA-γGlu-C18 diacid])TETGSGSP-NH2 [Compound 81]
- EC50 [1, 7]: 0.0514 nM
- EC50 [1, 4]: 0.016 nM
- EC50 [2, 8]: 15.8 pM
- EC50 [2, 5]: 3.31 pM
- EC50 [3, 9]: 188 pM
- EC50 [3, 6]: 4.07 pM

Substance: H[Aib]HGTFTSDYSILLEEQAAREFIEWLLAGGPSGGEASHLSTAQTQRLSAELHK([AEEA-AEEA-γGlu-C18 diacid])LATLPRTETGSGSP-NH2 [Compound 75]
- EC50 [1, 7]: 0.0252 nM
- EC50 [1, 4]: 0.00366 nM
- EC50 [2, 8]: 11.9 pM
- EC50 [2, 5]: 2.65 pM
- EC50 [3, 9]: 110 pM
- EC50 [3, 6]: 2.49 pM

Source: US20260174875A1 (Novo Nordisk A/S, priority 2023, published 2026)
